Our source for the GI50 and TGI values is PubChem BioAssay (NCI).

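Briefly, cells in 96-well plates were exposed to five compound concentrations for 48 h, and endpoints were estimated by linear interpolation. GI50: concentration for 50% inhibition of growth. TGI: concentration producing complete growth inhibition.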

Holding throughout (test): growth of human tumour cells (NCI), 48 h
Experiment [1] has as its system NCI-H460 lung.
For experiment [2], the system named is UACC-62 melanoma.
The subject of experiment [3] is HS 578T breast.
For experiment [4], the system named is EKVX NSCLC.
Experiment [5] concerns DU-145 prostate.
The subject of experiment [6] is A549 NSCLC.
Experiment [7] concerns HCC-2998 colon.
The test system of experiment [8] is T-47D breast.

Turning to `Nc1ccc(C#Cc2cncnc2Nc2ccc(OCc3cccc(F)c3)c(Cl)c2)cc1`, the GI50 was 15.7 µM in experiment [1]; 19.4 µM in experiment [2]; 6.07 µM in experiment [3]; 3.07 µM in experiment [4]; above 18 µM in experiment [5]; 8.58 µM in experiment [6]. Besides, the GI50 was 11.1 µM in experiment [7] and 6.17 µM in experiment [8]. For the same molecule, the TGI is above 25 µM in experiment [1]; above 25 µM in experiment [2]; 24.2 µM in experiment [3]; above 25 µM in experiment [4]; above 25 µM in experiment [5]; above 25 µM in experiment [6]. Besides, the TGI in experiment [7] and in experiment [8] was above 25 µM throughout.
Turning to `COc1cc2cc(Oc3ccc(NC(=O)Nc4ccccc4)cc3)c(C)nc2cc1OCCN1CCCCC1`, the GI50 in experiment [1] was 6.05 µM; in experiment [2], 5.89 µM; in experiment [3] it was 5.79 µM; in experiment [4] it was 5.22 µM; in experiment [5], 5.92 µM; in experiment [6], 7.26 µM. In addition, the GI50 was 5.62 µM in experiment [7] and 6.12 µM in experiment [8]. In addition, the TGI in experiment [1] is 11.2 µM; in experiment [2] it was 11 µM; in experiment [3] it was 14.2 µM; in experiment [4] it was 10.9 µM; in experiment [5] it was 11.4 µM; in experiment [6], 18.6 µM. In addition, the values for the TGI in experiment [7] and in experiment [8] were 10.5 µM and 14.5 µM, respectively.
`O=S(=O)(NC(=S)Nc1ccccc1)c1ccc(N2N=C3c4ccccc4CC3C2c2cccs2)cc1` (stereo unspecified): the GI50 in experiment [1] is 24.6 µM; in experiment [2], 18.5 µM; in experiment [3] it was 20.9 µM; in experiment [4], 19.5 µM; in experiment [5], 17.8 µM; in experiment [6] it was 15.7 µM. Moreover, the GI50 was 13.9 µM in experiment [7] and above 100 µM in experiment [8]. Besides, the TGI in experiment [1] is above 100 µM; in experiment [2], 37.3 µM; in experiment [3], 68 µM; in experiment [4], 54.4 µM; in experiment [5], 41.5 µM; in experiment [6], above 100 µM. Besides, the TGI in experiment [7] is 30.8 µM; in experiment [8], above 100 µM.
`Nc1nc2ccc([C@@H]3Nc4ccc5[nH]ncc5c4[C@H]4[C@H]5CCC(C5)[C@H]43)cc2s1`: the GI50 in experiment [1] was 0.81 µM; in experiment [2], 1.51 µM; in experiment [3], 1.39 µM; in experiment [4], 1.47 µM; in experiment [5], 1.63 µM; in experiment [6], 0.994 µM. In addition, the figures for the GI50 in experiment [7] and in experiment [8] were 1.75 µM and 0.79 µM, respectively. The TGI was 2.32 µM in experiment [1]; 3.05 µM in experiment [2]; 4.4 µM in experiment [3]; 4.92 µM in experiment [4]; 5.78 µM in experiment [5]; 3.98 µM in experiment [6]. Moreover, the TGI in experiment [7] is 3.76 µM; in experiment [8], 6.16 µM.
In the case of `Cc1cc(S(=O)(=O)Nc2nc3ccsc3c(=O)n2Cc2ccco2)c(S)cc1Cl`, the GI50 was 60.6 µM in experiment [1]; 53.1 µM in experiment [2]; 81 µM in experiment [3]; above 100 µM in experiment [4]; above 100 µM in experiment [5]; above 100 µM in experiment [6]. For the same molecule, the GI50 in experiment [7] and in experiment [8] was above 100 µM each time. Besides, the TGI in experiment [1], in experiment [2], in experiment [3], in experiment [4], in experiment [5] and in experiment [6] was above 100 µM in each case. Further, the TGI in experiment [7] and in experiment [8] was above 100 µM throughout.
Regarding `C/C=C(\C)C(=O)O[C@@H]1C(O)[C@H]2OC(COC(=O)CCC(=O)CCCCCC[C@H](CCCCC)O[C@@H]3OC(C)[C@H](OC(C)=O)C(O)[C@H]3O2)[C@H]1OC(=O)/C=C/c1ccccc1` (stereo partly specified), the GI50 in experiment [1] was below 0.01 µM; in experiment [2] it was 0.0176 µM; in experiment [3] it was below 0.01 µM; in experiment [4], below 0.0267 µM; in experiment [5], 0.0201 µM; in experiment [6] it was below 0.01 µM. Also, the GI50 in experiment [7] was 1.79 µM; in experiment [8] it was below 0.01 µM. The TGI in experiment [1] was above 60.9 µM; in experiment [2], 1.01 µM; in experiment [3] it was 23.3 µM; in experiment [4], above 87.9 µM; in experiment [5], above 44.2 µM; in experiment [6], 32.3 µM. Besides, the TGI in experiment [7] was above 100 µM; in experiment [8], 0.761 µM.
As to `O=C1C(Cl)=C(Nc2ccc3cn[nH]c3c2)C(=O)c2ccccc21`, the GI50 is 1.7 µM in experiment [1]; 1.5 µM in experiment [2]; 0.5 µM in experiment [3]; 1.5 µM in experiment [4]; 1.17 µM in experiment [5]; 2.38 µM in experiment [6]. Besides, the GI50 was 2.02 µM in experiment [7] and 1.24 µM in experiment [8]. Besides, the TGI in experiment [1] was 4.14 µM; in experiment [2], 2.93 µM; in experiment [3] it was 3.88 µM; in experiment [4], 4.6 µM; in experiment [5] it was 2.39 µM; in experiment [6] it was 5.86 µM. Besides, the TGI in experiment [7] worked out at 3.99 µM; in experiment [8] it was 3.27 µM.
In the case of `O=C(O)CCC1COc2ccccc2O1` (stereo unspecified), the TGI in experiment [1], in experiment [2], in experiment [3], in experiment [4], in experiment [5] and in experiment [6] was above 10 µM throughout. For the same molecule, the TGI in experiment [7] and in experiment [8] was above 10 µM throughout.
With `O=C(Oc1ccc([N+](=O)[O-])cc1)N1CCN(Cc2cccc(Oc3ccccc3)c2)CC1`, the GI50 in experiment [1] was 99.3 µM; in experiment [2] it was 13.6 µM; in experiment [3] it was above 100 µM; in experiment [4] it was 48.6 µM; in experiment [5], above 100 µM; in experiment [6], above 73.6 µM. For the same molecule, the GI50 was above 100 µM in experiment [7] and 17.7 µM in experiment [8]. Also, the TGI in experiment [1], in experiment [2], in experiment [3], in experiment [4], in experiment [5] and in experiment [6] was above 100 µM throughout. For the same molecule, the TGI in experiment [7] and in experiment [8] was above 100 µM in each case.
